Laboratory results: patent US20250082646A1, “OVARIAN ANTI-AGING PHARMACEUTICAL COMPOSITION AND USE THEREOF” (priority 2022, published 2025)

Legend:
[1] = system: fertilized 2PN embryos of old mice; assay: Pre-implantation development of fertilized 2PN embryos from treated old mice; type: in vivo, mouse
Description: (§1) For in vivo hormone stimulation, the old mice were treated with the Example compound, and 12 hours later, 75 IU pregnant mare serum gonadotropin (PMSG: RP1782725000; BioVendor, Czech Republic) was injected into the mice. A control is a group administered only 751U PMSG. Female mice were superovulated by injecting hormones intraperitoneally at intervals of 48 hours. The administered hormones were PMSG (7.5 IU) and human chorionic gonadotropin (hCG: 668900221; LG Chem. Seoul, Korea: 7.5 IU). After secondary hormone treatment, female mice were mated with male mice (2:1 or 1:1). Modified pronuclear cells (2PNs) were obtained 24 hours after hCG injection.
In Experimental Example 2, the effect of fertilized 2PN embryo development on the ovaries of the old mice treated with Example Compound was evaluated.
27 pronuclear cells of the old mice (n=15) treated with Example Compound and 62 pronuclear cells of the old mice (n=15) not treated with Example Compound as a control were cultured. Afterward, the number of cells at each of 2-cell, 4-cell, 8-cell, morula, early blastocyst, and late blastocyst stages was measured using a microscope, and expressed as a percentage.

[2] = system: longevity-related genes, steroidogenesis-related genes, primordial follicle factors, ovarian function factors; assay: RT-PCR of ovarian function-related genes in ovaries of old mice; type: in vivo, mouse
Excerpt: The expression of ovarian function-related genes in the ovaries of old mice treated with Example Compound was confirmed by reverse transcription-polymerase chain reaction (RT-PCR).
mRNA was extracted from oocytes using a TRIzol (TRIzol RNA, 15596026, Thermo Fisher) solution and subjected to RT-PCR. The PCR product was stained with SafeView™ (Applied Biological Materials, Richmond, Canada) and loaded on a 2% agarose gel. Additionally, the gel was visualized under UV light using a gel documentation system (WSE-6100 LuminoGraph; ATTO, Tokyo, Japan). The intensity ratios of the product bands were analyzed using the ImageJ software program.
The expression of primordial follicle factors, such as Nanog, Oct3/4, and p63, and ovarian function factors, such as AMH and BMP15, in the ovaries of the mice treated with Example Compound were analyzed by RT-PCR.
In FIGS. 4A and 4B, “Young” indicates a young mouse, “Old” indicates an old mouse, and “Old+Compound 1” indicates an old mouse treated with Example Compound.
In FIG. 4A, the upper left box indicates longevity-related genes, the lower left box indicates steroidogenesis-related genes, the upper right box indicates primordial follicle factors, and the lower right box indicates ovarian function factors.

old ovaries (GV oocytes) = assay: Number of GV oocytes collected from ovaries after superovulation; type: in vivo, mouse; details: old ovaries treated vs old ovaries not treated; FIGS. 1B and 1C
Description: Female mice (young mice: 7-8 weeks old; old mice: 40 weeks or older) were superovulated by intraperitoneally injecting pregnant mare serum gonadotropin (PMSG: G4527, Sigma Aldrich: 7.5 IU). Germinal vesicle (GV) oocytes were collected from the ovaries 48 hours after PMSG injection. For zygotes, female mice were injected with PMSG, and 48 hours later, injected with hCG, and then placed overnight with BDF1 stud male mice, which were approximately 10 to 12 weeks old. The next day, plugs of the female mice were examined, and zygotes and two-cell embryos were collected from the oviducts 18 to 20 hours and 36 hours after hCG injection, respectively.
After inducing superovulation, the numbers of GV oocytes in the ovaries of the old mice and young mice treated with Example Compound were evaluated.
The measurement of the number of GV oocytes was performed by collecting mouse eggs from each group (the number of eggs of young mice: 15: the number of eggs of old mice: 30; and the number of eggs of old mice treated with Example Compound: 30), physically chopping the eggs to collect ovarian follicles, and isolating GV oocytes in the ovarian follicles to count the number of cells.

ovaries of old mice = assay: Ovarian gene expression pattern by next generation sequencing (mRNA sequencing); type: in vivo, mouse; details: NGS; genes increased in the old group
Description: A major change in gene expression caused by treatment with Example Compound was confirmed through next generation sequencing (NGS).
mRNA sequencing was performed according to References. RNA was extracted using a TRIzol (15596026. Thermo Fisher) solution. Sequencing libraries were prepared according to the manufacturer's instructions using the TruSeq Stranded mRNA LT Sample Prep Kit (Illumina). Paired end 101 bp sequencing was performed using the Illumina platform (NovaSeq 6000, Illumina). The results of two experiments were obtained for each group.
According to the criteria (1st trimming, base quality<3, window size=4, mean quality=15; 2nd trimming: min length=36 bp), paired end read data was trimmed using Trimmomatic (Bolger et al., 2014). Using the HISAT2 program (Kim et al., 2019; Nat Biotechnol 37, 907-915, 2019), trimmed reads were mapped to the UCSC genome database. Also, the mapping results were quantified using StringTie (Pertea et al., 2015; Nat Biotechnol. 2015 March; 33(3): 290-295) and gene/transcript-based annotations (NCBI Annotation Release 108).
Differential expression gene analysis was performed using DESeq2 according to the criteria (baseMean counts>14, false discover rate (FDR)<0.1, and log 2FoldChange>1). […]

[3] = system: mouse ovaries stimulated with PMSG; assay: Histology (hematoxylin and eosin) of ovaries after PMSG stimulation in vivo: number of ovarian follicles; details: treated ovaries compared to the ovaries of the control; after hormonal stimulation; FIG. 1A
Description: In this experiment, as a control, young mice (7 to 9 weeks old, n=15), and as an experimental group, old mice (55 to 60 weeks old, n=30) were prepared. In the drawing, the experimental results of the young mice are indicated as ‘Young,’ and the experimental results of the old mice are indicated as ‘Old.’
as §1
In Experimental Example 1, the effect of treatment with Example Compound on mouse ovaries stimulated with PMSG in vivo was evaluated. Light microscopy imaging was performed on the ovaries of young mice, and old mice treated and not treated with Example Compound.
Each sample was fixed with 4% paraformaldehyde at room temperature for 30 minutes, and the fixed tissue was washed with PBS and embedded in paraffin with a thickness of 5 μm. […]

[4] = system: Ptpn6, Fcer1g, Tyrobp, Slamf9, Clec4a3 mRNA; assay: RT-qPCR of immune system regulatory genes (tumor necrosis factor superfamily cytokine production) in ovaries; type: in vivo, mouse; details: old experimental group treated, FIG. 3B
Description: In this experiment, a change in the expression of immune system regulatory genes (genes involved with tumor necrosis factor superfamily cytokine production) was quantitatively evaluated using real-time quantitative PCR (RT-qPCR) according to the treatment of aged models with Example Compound.
RT-qPCR was performed on each ovary using the TRIzol protocol, total RNA was extracted from a lysate using the RNeasy mini kit (Qiagen Ltd.), and the extracted total RNA was reverse-transcribed using a Superscript kit (Invitrogen) containing a random hexamer to synthesize cDNA.
Gene expression levels were confirmed using primers and the SsoAdvanced Universal SYBR Green Supermix (Bio-Rad. US) in the CFX96 Touch Real-Time PCR detection system (Bio Rad, US).
For each gene tested, a comparative threshold cycle (CT) method that normalizes the accumulated PCR product to the reference gene beta-actin was used, and repeated three times.
The PCR product was loaded on a 2% agarose gel and stained with Safeview™ (Applied Biological Materials. Richmond, Canada), and the gel was visualized under UV light using a gel documentation system (WSE-6100 LuminoGraph; ATTO, Tokyo, Japan), and the product bands were analyzed by the analysis of intensity ratios using ImageJ software.

[5] = old mice treated, 27 pronuclear cells cultured
[6] = old mice treated vs old mice not treated

In the case of `O=S1(=O)CCN(Cc2cc(NC3CCOCC3)c3[nH]c(-c4ccccc4)cc3c2)CC1` [Example Compound, 5-[(1,1-dioxido-4-thiomorpholinyl)methyl]-2-phenyl-N-(tetrahydro-2H-pyran-4-yl)-1H-indol-7-amine], the “embryo development rate higher than that of the control embryo” value ([1]; at the morula, early blastocyst, and late blastocyst stages, old mice, FIG. 2) is reported as 20%, the early blastocyst rate [1, 5] is reported as 51.85% and the “embryo development rate at the morula stage” value [1, 5] is reported as 55.56%. For the same molecule, the late blastocyst rate [1, 5] was 51.85%, the “expression levels of SOD2 and SIRT1 (longevity-related genes)” value [2, 6] was “higher” and the “expression levels of steroid production-related genes Edn2, Tbxa2r, Oxtr, and Adra1d” value [2, 6] was “significantly increased”. The “mRNA expression of Oct3/4, Nanog, p63, Lhcgr, AMH, GDF9, BMP15, and Kid” value ([2]; treated vs control not treated, FIGS. 4A and 4B) was “significantly higher”, the “total number of oocytes collected at the GV stage” value (old ovaries (GV oocytes)) was “significantly higher” and the “expression of Fcerlg, Slamf9, Clec4a3, Ptpn6, Tyrobp, Adipoq, Bcl3, Trem2, and Sash3 (TNF superfamily cytokine production DEGs)” value (ovaries of old mice) was “down-regulated”. The “total number of ovarian follicles, including preantral follicles and antral follicles” value [3] was “significantly higher” and the “mRNA expression levels of Ptpn6, Fcerlg, Tyrobp, Slamf9, and Clec4a3” value [4] was “lowered to levels similar to those of the young control”.
